In patent US20100062083A1, “DERMAL FILM-FORMING LIQUID FORMULATIONS FOR DRUG RELEASE TO SKIN” (POLICHEM S.A., priority 2007, published 2010):
Where “and” joins values, the source holds several entries; their conditions need not be identical. Equal values may be shown once.

Test: in vitro permeation test, Gummer permeation vertical cells
Assay type: in vitro ADME, mice
Conditions: for ciclopirox permeated: 75.0 μL of composition of Example 4 on hairless mice skin, individual experiments test 1-6
Method: An in vitro permeation test was performed by applying the film forming solution according to the Example 4 to excised hairless mice skin, obtained from dorsal or abdominal skin of male hairless mice (strain MF1-hr-hr/OIa, Nossan srl, Correzzana, Milan, Italy) aged 7-10 weeks. Portions of the skin (ca 9 cm^2), after removal of adhering fat and subcutaneous tissues, were placed as a barrier between the two compartment of Gummer permeation vertical cells (Gummer, C. L. et al. The skin penetration cell: design update. Int. J. Pharm. 1987, 40, 101-104). The receiving phase was introduced into the lower compartment and 75.0 μL of the composition according to the Example 4 were regularly distributed on the exposed skin surface. At predetermined time intervals (1, 2, 3, 4 and 5 hours) 5.0 mL of the receiving solution were collected for analysis and immediately replaced by an equal volume of fresh buffer. The experiment was replicated 6 times.

permeation through mice skin, conclusion: able to permeate the mice skin
Compound: Cc1cc(C2CCCCC2)n(O)c(=O)c1 [ciclopirox]
ciclopirox permeated (h 1): 0.001548 mg/cm^2 and 0.002964 mg/cm^2 and 0.001542 mg/cm^2 and 0.001617 mg/cm^2 and 0.00487 mg/cm^2 and 0.02038 mg/cm^2 | ciclopirox permeated (h 2): 0.01134 mg/cm^2 and 0.05066 mg/cm^2 and 0.01241 mg/cm^2 and 0.0445 mg/cm^2 and 0.04696 mg/cm^2 and 0.1182 mg/cm^2 | ciclopirox permeated (h 3): 0.05601 mg/cm^2 and 0.102 mg/cm^2 and 0.04902 mg/cm^2 and 0.1745 mg/cm^2 and 0.2725 mg/cm^2 and 0.4084 mg/cm^2 | ciclopirox permeated (h 4): 0.1146 mg/cm^2 and 0.1226 mg/cm^2 and 0.08552 mg/cm^2 and 0.2757 mg/cm^2 and 0.5273 mg/cm^2 and 0.7623 mg/cm^2 | ciclopirox permeated (h 5): 0.1721 mg/cm^2 and 0.1401 mg/cm^2 and 0.1517 mg/cm^2 and 0.328 mg/cm^2 and 0.7212 mg/cm^2 and 1.025 mg/cm^2
